Laboratory results from the NIST ThermoML archive (doi:10.1021/acs.jced.5b00691).

Assays:
[1] = xn = mol fraction of the nth substance listed; conditions: x1 = 0.623; for surface tension liquid-gas: surface light scattering; for kinematic viscosity / mass density: Liquid; for kinematic viscosity: Surface Light Scattering; for mass density: Vibrating tube method
[2] = for surface tension liquid-gas: surface light scattering; for kinematic viscosity / mass density: Liquid; for kinematic viscosity: Surface laser light scattering (SLLS); for mass density: Vibrating tube method

COC(F)(F)C(F)(C(F)(F)F)C(F)(F)F [methyl nonafluoroisobutyl ether] + COC(F)(F)C(F)(F)C(F)(F)C(F)(F)F
[1]
Conditions | kinematic viscosity [m2/s] | mass density [kg/m3] | surface tension liquid-gas [mN/m]
273.15 K | 6.64e-07 | 1579.23 | 15.82
278.15 K | – | 1566.86 | –
283.15 K | 5.7e-07 | 1554.37 | 14.82
288.15 K | – | 1541.76 | –
293.15 K | 4.84e-07 | 1529.03 | 13.8
298.15 K | – | 1516.15 | –
303.15 K | 4.28e-07 | 1503.18 | 12.89
308.15 K | – | 1490.04 | –
313.15 K | 3.81e-07 | 1476.74 | 11.92
318.15 K | – | 1463.23 | –
323.15 K | 3.38e-07 | 1449.5 | 11
328.15 K | – | 1435.61 | –
333.15 K | 3.06e-07 | 1421.48 | 10.06
338.15 K | – | 1407.13 | –
343.15 K | 2.77e-07 | 1392.52 | 9.13
348.15 K | – | 1377.65 | –
353.15 K | 2.46e-07 | 1362.5 | 8.16
358.15 K | – | 1347.04 | –
363.15 K | 2.28e-07 | 1331.24 | 7.32
373.15 K | 2.09e-07 | – | 6.46

COC(F)(C(F)(F)C(F)(F)F)C(F)(C(F)(F)F)C(F)(F)F (configuration not stated)
[2]
Conditions | kinematic viscosity [m2/s] | mass density [kg/m3] | surface tension liquid-gas [mN/m]
273.15 K | 1.01e-06 | 1714.26 | 16.56
278.15 K | – | 1702.92 | –
283.15 K | 8.49e-07 | 1691.49 | 15.81
288.15 K | – | 1680.02 | –
293.15 K | 7.37e-07 | 1668.48 | 14.97
298.15 K | – | 1656.86 | –
303.15 K | 6.31e-07 | 1645.14 | 14.15
308.15 K | – | 1633.38 | –
313.15 K | 5.56e-07 | 1621.44 | 13.43
318.15 K | – | 1609.41 | –
323.15 K | 4.92e-07 | 1597.29 | 12.61
328.15 K | – | 1585.05 | –
333.15 K | 4.36e-07 | 1572.65 | 11.79
338.15 K | – | 1560.14 | –
343.15 K | 3.95e-07 | 1547.49 | 11.03
348.15 K | – | 1534.67 | –
353.15 K | 3.52e-07 | 1521.68 | 10.16
358.15 K | – | 1508.51 | –
363.15 K | 3.15e-07 | 1495.16 | 9.43
373.15 K | 2.88e-07 | – | 8.64
